The text below walks through data of ChEMBL document CHEMBL3822429, “Identification of novel EZH2 inhibitors through pharmacophore-based virtual screening and biological assays” (Bioorg Med Chem Lett, 2016).

For assay [1], the target named is T1, Histone-lysine N-methyltransferase EZH2 (Homo sapiens, UniProt Q15910). The assay can be described thus: Inhibition of PRC2 EZH2 sub unit (unknown origin) assessed as inhibition of SAM-mediated methyl transfer process at 50 uM preincubated for 15 mins followed by addition of H3K27me and [3H]SAM as substrate measured after 90 mins by radioactive methylation assay.
Target sequence in this assay (Q15910 whole entry, looked up): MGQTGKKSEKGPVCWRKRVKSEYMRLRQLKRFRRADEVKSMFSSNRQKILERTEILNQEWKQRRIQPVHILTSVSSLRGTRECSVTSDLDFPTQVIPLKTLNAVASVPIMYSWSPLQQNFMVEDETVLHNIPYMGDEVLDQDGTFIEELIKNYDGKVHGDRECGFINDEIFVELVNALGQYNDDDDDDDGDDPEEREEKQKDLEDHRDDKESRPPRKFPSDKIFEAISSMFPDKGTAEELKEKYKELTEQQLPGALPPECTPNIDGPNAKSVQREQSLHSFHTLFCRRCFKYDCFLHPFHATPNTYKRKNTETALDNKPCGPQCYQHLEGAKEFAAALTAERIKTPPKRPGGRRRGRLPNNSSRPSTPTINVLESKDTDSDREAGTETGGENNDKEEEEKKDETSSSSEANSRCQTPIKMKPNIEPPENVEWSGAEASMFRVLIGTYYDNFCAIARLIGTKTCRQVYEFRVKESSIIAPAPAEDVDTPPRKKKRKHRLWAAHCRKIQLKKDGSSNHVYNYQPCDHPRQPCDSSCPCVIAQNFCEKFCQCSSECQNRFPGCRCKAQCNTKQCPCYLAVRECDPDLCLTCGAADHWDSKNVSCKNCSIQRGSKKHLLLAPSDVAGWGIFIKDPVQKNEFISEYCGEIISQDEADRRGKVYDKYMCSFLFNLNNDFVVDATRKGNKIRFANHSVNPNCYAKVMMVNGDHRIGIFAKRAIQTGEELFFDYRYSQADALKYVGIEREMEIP

A short description of assay [2]: Antiproliferative activity against human Toledo cells expressing wild-type EZH2 assessed as growth inhibition measured after 72 hrs by AlamaBlue assay.
Assay [3] deals with T1, Histone-lysine N-methyltransferase EZH2. In words: Inhibition of PRC2 EZH2 sub unit (unknown origin) assessed as inhibition of SAM-mediated methyl transfer process preincubated for 15 mins followed by addition of H3K27me and [3H]SAM as substrate measured after 90 mins by radioactive methylation assay.
Target sequence in this assay (Q15910 whole entry): as the sequence (Q15910 whole entry, looked up) above
A further assay concerns DB. The assay can be described thus: Antiproliferative activity against human DB cells expressing EZH2 mutant assessed as growth inhibition measured after 72 hrs by AlamaBlue assay.
The target of assay [4] is DNA (cytosine-5)-methyltransferase 1 (Homo sapiens) (UniProt P26358). In words: Inhibition of human DNMT1 assessed as DNA methylation at 50 uM preincubated for 15 mins followed by addition of poly(dI-dC) and [3H]SAM as substrate measured after 2 hrs by radioactive methylation assay.

Each structure is given as a SMILES string. pIC50: −log10 of the molar value.

Sequence of DNA (cytosine-5)-methyltransferase 1 (Homo sapiens) (P26358 whole entry): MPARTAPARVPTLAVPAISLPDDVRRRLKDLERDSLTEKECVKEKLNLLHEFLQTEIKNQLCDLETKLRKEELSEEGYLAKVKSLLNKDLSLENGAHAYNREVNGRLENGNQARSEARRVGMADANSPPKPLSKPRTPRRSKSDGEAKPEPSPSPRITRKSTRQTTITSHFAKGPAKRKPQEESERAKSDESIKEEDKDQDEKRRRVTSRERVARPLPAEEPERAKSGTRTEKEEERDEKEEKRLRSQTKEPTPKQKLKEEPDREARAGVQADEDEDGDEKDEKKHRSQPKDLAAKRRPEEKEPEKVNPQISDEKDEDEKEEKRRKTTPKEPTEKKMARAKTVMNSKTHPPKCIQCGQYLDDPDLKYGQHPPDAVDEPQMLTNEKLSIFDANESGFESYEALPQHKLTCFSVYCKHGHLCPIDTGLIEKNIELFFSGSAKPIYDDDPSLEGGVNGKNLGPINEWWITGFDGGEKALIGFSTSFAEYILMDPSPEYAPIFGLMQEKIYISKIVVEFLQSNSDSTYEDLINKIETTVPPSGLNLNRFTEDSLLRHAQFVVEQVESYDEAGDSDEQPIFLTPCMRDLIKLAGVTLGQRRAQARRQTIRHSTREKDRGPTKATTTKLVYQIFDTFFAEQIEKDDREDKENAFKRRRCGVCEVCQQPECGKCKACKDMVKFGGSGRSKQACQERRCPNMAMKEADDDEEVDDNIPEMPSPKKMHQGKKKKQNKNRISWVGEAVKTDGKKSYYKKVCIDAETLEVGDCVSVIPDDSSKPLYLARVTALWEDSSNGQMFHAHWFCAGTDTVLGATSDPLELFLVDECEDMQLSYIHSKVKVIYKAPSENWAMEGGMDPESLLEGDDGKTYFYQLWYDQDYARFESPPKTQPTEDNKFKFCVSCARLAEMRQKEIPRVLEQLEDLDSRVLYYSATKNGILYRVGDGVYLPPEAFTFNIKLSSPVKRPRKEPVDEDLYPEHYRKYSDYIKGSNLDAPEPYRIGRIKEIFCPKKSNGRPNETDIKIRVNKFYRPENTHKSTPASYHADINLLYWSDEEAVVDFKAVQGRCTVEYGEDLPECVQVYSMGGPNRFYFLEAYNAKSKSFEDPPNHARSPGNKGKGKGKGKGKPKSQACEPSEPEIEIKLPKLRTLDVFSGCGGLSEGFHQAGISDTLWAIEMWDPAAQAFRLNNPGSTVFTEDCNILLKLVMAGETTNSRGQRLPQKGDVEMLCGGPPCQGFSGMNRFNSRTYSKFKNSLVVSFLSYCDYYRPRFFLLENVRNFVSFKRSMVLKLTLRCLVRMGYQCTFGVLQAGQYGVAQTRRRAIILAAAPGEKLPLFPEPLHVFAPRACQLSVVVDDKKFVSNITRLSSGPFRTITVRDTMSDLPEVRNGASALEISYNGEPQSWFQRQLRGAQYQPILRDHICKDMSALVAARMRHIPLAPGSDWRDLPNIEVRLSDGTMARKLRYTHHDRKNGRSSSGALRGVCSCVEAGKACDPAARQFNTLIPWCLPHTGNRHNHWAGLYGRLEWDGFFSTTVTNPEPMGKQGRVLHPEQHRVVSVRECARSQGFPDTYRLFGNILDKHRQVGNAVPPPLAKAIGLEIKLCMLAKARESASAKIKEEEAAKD

For the compound `Cc1cc(C)nc(NC2=NCCS2)n1`, the inhibition in assay [1] was found to be 16%. Regarding `O=C(/C(=C(/[O-])c1ccc(Cl)cc1)[n+]1ccc2ccccc2c1)c1ccccc1`, the inhibition in assay [1] was determined as 2%. As to `NC(=O)c1ccc(N=C2C(=O)Nc3ccc([N+](=O)[O-])cc32)cc1`, the inhibition in assay [1] is 6%.

As to `Cc1ccc2nc(Nc3nc(O)cc(CSc4nnnn4-c4ccccc4)n3)nc(C)c2c1`, the inhibition in assay [1] is 28%.

Regarding `OCCNCC(O)Cn1c2ccc(Br)cc2c2cc(Br)ccc21` (configuration not stated), in assay [1], the inhibition is -9%.

With `O=C1c2ccccc2-c2cccc3c2c1cc1ccccc13`, in assay [1], the inhibition was 34%.

Regarding `Cc1ccc2c(C)nc(Nc3nc(O)cc(CSc4nnnn4-c4ccccc4)n3)nc2c1`, the inhibition in assay [1] turned out to be 19%. In the case of `O=C(NC1CCSC1=O)c1cccc(C(=O)NC2CCSC2=O)c1` (configuration not stated), the inhibition in assay [1] was 6%. Still for that read-out and setting: with `Cc1ccc2c(c1)C1CN(C)CCC1N2C(=O)c1ccc2ccccc2c1` (configuration not stated) the figure was 0%; with `O=C1CC(=C2c3ccccc3-c3ccccc32)C(=O)N1CCN1CCN(c2cccc(Cl)c2)CC1`, 29%; with `O=C(c1cnn2c1NC(c1ccc(Br)cc1)CC2C(F)(F)F)N1CCN2CCCC2C1` (configuration not stated), -2%. On to `Cn1c(=O)cc2c3c(c(N4CCOCC4)ccc31)C(=O)c1ccccc1-2`, for which the inhibition in assay [1] was determined as 9%. On the same count and under the same terms, with `Cc1ccc(-n2nc3cc(C)c(NC(=O)NC(=O)Cc4ccccc4)cc3n2)cc1` the figure was 0%; with `Cc1cc(O)nc(Nc2ccccc2)n1`, -2%; with `CC1=CC(C)(C)Oc2c1c(=O)n(-c1ccccc1)c(=S)n2-c1ccc(C)cc1`, 4%. `CC(=O)Nc1cc(C(=O)OC(C(=O)c2ccccc2)c2ccccc2)ccc1C` (configuration not stated): the inhibition in assay [1] was found to be 2%.

For the compound `N#C/C(=C/c1ccc(-c2ccc(C(N)=O)cc2)o1)c1nc2ccccc2[nH]1`, the inhibition in assay [1] stood at 41%. Consider `CCOc1ccc(NC(=N)Nc2nc(O)cc(CSc3nnnn3-c3ccccc3)n2)cc1`, for which, in assay [1], the inhibition was -1%. Regarding `NS(=O)(=O)c1ccc(NC(=O)CN2C(=O)c3cccc4cccc(c34)C2=O)cc1`, the inhibition in assay [1] was 14%. As to `NC(=O)CCN1CCN(CCOC2Cc3cc(Cl)ccc3Sc3ccccc32)CC1` (configuration not stated), the inhibition in assay [1] is -6%. With `COc1ccc(C(=O)C(OC(=O)c2ccc(C)c(NC(C)=O)c2)c2ccccc2)cc1` (configuration not stated), the inhibition in assay [1] stood at 9%. On to `N/N=C1/CCCc2c1[nH]c1ccc(F)cc21`, for which the inhibition in assay [1] is 18%. As to `CC12CCCc3c(-c4ncn[nH]4)c(-c4ccccc4)c(=O)n(c31)-c1ccccc12` (configuration not stated), in assay [1], the inhibition amounted to 1%. With `COc1ccc2nc(Nc3nc(O)cc(CSc4nnc(C)s4)n3)nc(C)c2c1`, the inhibition in assay [1] was -9%. On to `O=c1c(-c2ccccc2)c(O)c2c(n1-c1ccccc1)CCCC2`, for which the inhibition in assay [1] was -2%. In the case of `O=C1c2ccccc2NC(c2c[nH]nc2-c2ccccc2)N1O` (configuration not stated), in assay [1], the inhibition came to 9%. On the same count and under the same terms, with `Cc1ccc2nc(N=C(N)N)nc(C)c2c1` the figure was 3%.

As to `Cc1ccc2c(c1)C1CN(C)CCC1N2C(=O)Cc1ccc(Cl)cc1` (configuration not stated), the inhibition in assay [1] turned out to be 4%. For `COc1ccc(-n2c(SCC(=O)c3ccc(Cl)cc3)nc3ccccc3c2=O)cc1`, the inhibition in assay [1] was found to be 5%. `Cn1c(-c2ccc(C=O)o2)nc2c3ccccc3c3ccccc3c21`: the inhibition in assay [1] was 52%. On to `CN1c2ccccc2Oc2nnc(N3CCN(C(c4ccccc4)c4ccccc4)CC3)cc21`, for which, in assay [1], the inhibition was -7%.

`COc1ccc(CN2CCN(c3cc(C)c(C#N)c4nc5ccccc5n34)CC2)cc1`: the inhibition in assay [1] was 0%. Same read-out and setting: with `CCN(CC)c1ccc2cc(-c3nnc(Nc4cc(OC)ccc4OC)o3)c(=O)oc2c1` the figure was 25%. Same read-out and setting: with `O=C1C(Cc2ccccc2)=C(O)c2cccc3c2C1=C(O)CC3` the figure was 11%; with `CCOC(=O)C[n+]1ccc2c([nH]c3ccccc32)c1C`, 7%; with `Cc1ccc(C(=O)CSc2nc3sc4c(c3c(=O)n2-c2ccccc2)CCCC4)s1`, -1%. The same measure, in the same setting: the same measure for `Cc1cc(C)nc(Nc2n[nH]c(-c3ccccc3Cl)n2)n1`: 17%. On to `COc1ccc2nc(Nc3nc(O)cc(CSc4nnnn4-c4ccccc4)n3)nc(C)c2c1`, for which the figures for the inhibition in assay [1] and in assay [4] were 72% and 0%, respectively. Also, the results for the negative-log IC50 (pIC50) (in assay [2]; in assay [3]; with DB) were 4.62, 4.65 and 4.48, respectively.

As usually defined, the inhibition is the relative decrease from the control value, in per cent. Broadly, the pIC50 is the IC50 on a negative log10 scale, so that one unit is a factor of ten.
